Experimental data reported in patent publication US8846704B2, “Thiopyrimidine-based compounds and uses thereof” (YM Biosciences Austraila Pty Ltd, priority 2007, dated 2014).

How the values were obtained:
Assay type in all cases: biochemical
Flt 1(h) = target: T1, Flt 1(h) (Homo sapiens, UniProt P17948); assay: Upstate KinaseProfiler enzyme assay, Flt 1; conditions: 500 nM compound; read-out: Percent inhibition at 500 nM Flt 1(h)
T1 construct: purchased Upstate Biotechnology (Dundee, UK), KinaseProfiler service
T1 sequence (P17948 27-1338): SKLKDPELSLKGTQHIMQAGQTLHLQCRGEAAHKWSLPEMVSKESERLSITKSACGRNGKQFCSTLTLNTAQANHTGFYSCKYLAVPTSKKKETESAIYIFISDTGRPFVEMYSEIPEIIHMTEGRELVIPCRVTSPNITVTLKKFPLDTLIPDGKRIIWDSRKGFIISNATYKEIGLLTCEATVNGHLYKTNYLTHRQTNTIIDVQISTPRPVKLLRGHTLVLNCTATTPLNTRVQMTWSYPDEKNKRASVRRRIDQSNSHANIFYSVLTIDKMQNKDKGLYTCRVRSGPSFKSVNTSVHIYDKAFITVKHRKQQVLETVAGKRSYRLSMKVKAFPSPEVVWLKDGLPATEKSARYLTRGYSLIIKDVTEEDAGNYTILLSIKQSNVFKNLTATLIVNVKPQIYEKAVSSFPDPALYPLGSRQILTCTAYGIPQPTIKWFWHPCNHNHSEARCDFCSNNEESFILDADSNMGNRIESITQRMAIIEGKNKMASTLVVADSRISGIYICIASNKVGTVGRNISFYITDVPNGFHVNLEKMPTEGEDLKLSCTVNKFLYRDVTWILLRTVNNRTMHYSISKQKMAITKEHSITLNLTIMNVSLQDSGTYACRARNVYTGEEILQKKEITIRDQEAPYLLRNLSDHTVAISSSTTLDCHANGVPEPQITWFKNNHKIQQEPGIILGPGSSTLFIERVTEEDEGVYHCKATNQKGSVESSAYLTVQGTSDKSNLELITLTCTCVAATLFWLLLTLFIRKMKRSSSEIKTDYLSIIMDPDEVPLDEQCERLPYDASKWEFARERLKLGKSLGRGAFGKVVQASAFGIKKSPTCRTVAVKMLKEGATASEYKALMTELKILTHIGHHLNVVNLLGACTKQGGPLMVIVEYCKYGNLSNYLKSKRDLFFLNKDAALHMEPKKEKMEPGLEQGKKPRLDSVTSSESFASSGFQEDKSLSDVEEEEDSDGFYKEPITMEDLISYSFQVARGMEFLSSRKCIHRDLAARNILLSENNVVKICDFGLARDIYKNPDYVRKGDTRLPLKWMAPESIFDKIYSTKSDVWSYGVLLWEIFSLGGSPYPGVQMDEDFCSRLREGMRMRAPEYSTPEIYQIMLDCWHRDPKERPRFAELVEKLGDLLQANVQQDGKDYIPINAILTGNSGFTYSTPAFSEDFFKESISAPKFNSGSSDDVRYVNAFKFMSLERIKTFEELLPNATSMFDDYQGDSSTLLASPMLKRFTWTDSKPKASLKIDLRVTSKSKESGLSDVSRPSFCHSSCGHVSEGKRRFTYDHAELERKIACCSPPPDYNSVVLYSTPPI
Method: (§1) Further enzyme assays were conducted at Upstate Biotechnology (Dundee, UK) in the KinaseProfiler™ Assay system.
(§2) The general protocol is as follows. All kinases are pre-diluted to a 10× working concentration prior to addition into the assay. The composition of the dilution buffer for the kinases is 20 mM MOPS pH 7.0, 1 mM EDTA, 0.1% β-mercaptoethanol, 0.01% Brij-35, 5% glycerol, 1 mg/ml BSA. All substrates are dissolved and diluted to working stocks in de-ionised water.

Bmx(h) = target: T2, Bmx(h) (Homo sapiens, UniProt P51813); assay: Upstate KinaseProfiler enzyme assay, Bmx; conditions: 500 nM compound; read-out: Percent inhibition at 500 nM Bmx(h)
T2 construct: purchased Upstate Biotechnology (Dundee, UK), KinaseProfiler service
T2 sequence (P51813 1-675): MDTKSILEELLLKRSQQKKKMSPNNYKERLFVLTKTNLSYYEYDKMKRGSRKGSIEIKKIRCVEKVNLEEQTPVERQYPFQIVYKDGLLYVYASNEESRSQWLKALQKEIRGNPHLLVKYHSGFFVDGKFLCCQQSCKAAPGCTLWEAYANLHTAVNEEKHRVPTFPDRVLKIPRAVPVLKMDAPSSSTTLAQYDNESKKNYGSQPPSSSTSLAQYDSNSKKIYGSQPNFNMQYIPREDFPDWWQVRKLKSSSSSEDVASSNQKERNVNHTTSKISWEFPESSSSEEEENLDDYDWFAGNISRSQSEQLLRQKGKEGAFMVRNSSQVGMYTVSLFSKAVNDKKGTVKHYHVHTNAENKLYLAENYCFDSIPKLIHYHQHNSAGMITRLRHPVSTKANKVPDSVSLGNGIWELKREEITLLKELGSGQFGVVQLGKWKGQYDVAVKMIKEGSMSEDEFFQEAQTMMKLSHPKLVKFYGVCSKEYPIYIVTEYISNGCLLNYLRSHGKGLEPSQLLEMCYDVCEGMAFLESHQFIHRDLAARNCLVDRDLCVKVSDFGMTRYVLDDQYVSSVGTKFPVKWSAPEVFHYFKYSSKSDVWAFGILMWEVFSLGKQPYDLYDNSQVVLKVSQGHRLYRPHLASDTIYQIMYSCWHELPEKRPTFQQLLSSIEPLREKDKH
Method: as §1, §2

Blk(m) = target: T3, Blk(m) (Mus musculus, UniProt P16277); assay: Upstate KinaseProfiler enzyme assay, Blk; conditions: 500 nM compound; read-out: Percent inhibition at 500 nM Blk(m)
T3 construct: purchased Upstate Biotechnology (Dundee, UK), KinaseProfiler service
T3 sequence (P16277 whole entry): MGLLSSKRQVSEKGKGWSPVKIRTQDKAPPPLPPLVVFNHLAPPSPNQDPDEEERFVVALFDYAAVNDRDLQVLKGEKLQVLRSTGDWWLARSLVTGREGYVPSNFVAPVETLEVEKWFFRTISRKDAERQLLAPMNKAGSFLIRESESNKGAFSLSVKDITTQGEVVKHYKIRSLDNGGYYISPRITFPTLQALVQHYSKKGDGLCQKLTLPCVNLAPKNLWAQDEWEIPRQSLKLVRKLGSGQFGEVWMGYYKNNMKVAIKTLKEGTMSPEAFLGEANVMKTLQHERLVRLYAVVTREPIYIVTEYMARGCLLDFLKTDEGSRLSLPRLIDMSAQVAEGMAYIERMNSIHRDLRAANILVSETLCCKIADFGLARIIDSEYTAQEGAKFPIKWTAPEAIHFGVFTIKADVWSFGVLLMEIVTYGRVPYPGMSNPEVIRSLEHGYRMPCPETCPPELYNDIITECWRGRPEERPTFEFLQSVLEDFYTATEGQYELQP
Method: as §1, §2

KDR(h) = target: T4, KDR(h) (Homo sapiens, UniProt P35968); assay: Upstate KinaseProfiler enzyme assay, KDR; conditions: 500 nM compound; read-out: Percent inhibition at 500 nM KDR(h)
T4 construct: purchased Upstate Biotechnology (Dundee, UK), KinaseProfiler service
T4 sequence (P35968 20-1356): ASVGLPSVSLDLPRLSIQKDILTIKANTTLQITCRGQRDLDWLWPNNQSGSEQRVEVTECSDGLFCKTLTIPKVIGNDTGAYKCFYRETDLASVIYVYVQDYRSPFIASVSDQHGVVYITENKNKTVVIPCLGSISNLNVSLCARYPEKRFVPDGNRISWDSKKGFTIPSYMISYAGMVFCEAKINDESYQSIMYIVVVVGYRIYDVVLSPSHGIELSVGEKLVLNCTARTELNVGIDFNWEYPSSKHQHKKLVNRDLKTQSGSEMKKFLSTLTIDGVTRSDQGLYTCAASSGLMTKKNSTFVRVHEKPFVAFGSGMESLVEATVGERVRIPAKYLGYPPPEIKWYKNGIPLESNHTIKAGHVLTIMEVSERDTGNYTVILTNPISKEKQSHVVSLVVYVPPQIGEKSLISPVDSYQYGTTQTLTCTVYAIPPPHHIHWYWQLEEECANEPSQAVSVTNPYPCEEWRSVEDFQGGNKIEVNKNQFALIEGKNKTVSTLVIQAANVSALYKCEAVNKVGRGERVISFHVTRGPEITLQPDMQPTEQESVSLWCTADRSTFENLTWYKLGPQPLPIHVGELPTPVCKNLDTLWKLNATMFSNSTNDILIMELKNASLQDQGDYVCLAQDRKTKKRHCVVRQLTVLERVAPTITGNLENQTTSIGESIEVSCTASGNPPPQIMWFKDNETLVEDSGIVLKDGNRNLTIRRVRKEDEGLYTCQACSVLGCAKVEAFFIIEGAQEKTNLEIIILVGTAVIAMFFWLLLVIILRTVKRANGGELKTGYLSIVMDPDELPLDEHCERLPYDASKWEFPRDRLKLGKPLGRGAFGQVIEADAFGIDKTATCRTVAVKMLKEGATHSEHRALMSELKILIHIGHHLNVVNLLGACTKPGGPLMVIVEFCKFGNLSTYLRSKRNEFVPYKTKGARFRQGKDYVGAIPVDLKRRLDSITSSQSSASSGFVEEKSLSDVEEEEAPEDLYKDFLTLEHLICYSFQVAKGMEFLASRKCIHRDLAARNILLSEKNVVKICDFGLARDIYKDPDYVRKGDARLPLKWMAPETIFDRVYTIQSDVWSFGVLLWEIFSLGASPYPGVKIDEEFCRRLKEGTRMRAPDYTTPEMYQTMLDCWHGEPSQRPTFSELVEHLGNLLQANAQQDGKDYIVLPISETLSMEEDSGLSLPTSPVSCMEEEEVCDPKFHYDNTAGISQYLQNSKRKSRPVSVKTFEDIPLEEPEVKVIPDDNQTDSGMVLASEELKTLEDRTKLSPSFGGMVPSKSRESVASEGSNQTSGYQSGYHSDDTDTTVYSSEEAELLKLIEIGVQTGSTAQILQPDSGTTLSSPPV
Method: as §1, §2

Flt 4(h) = target: T5, Flt 4(h) (Homo sapiens, UniProt P35916); assay: Upstate KinaseProfiler enzyme assay, Flt 4; conditions: 500 nM compound; read-out: Percent inhibition at 500 nM Flt 4(h)
T5 construct: purchased Upstate Biotechnology (Dundee, UK), KinaseProfiler service
T5 sequence (P35916 25-1363): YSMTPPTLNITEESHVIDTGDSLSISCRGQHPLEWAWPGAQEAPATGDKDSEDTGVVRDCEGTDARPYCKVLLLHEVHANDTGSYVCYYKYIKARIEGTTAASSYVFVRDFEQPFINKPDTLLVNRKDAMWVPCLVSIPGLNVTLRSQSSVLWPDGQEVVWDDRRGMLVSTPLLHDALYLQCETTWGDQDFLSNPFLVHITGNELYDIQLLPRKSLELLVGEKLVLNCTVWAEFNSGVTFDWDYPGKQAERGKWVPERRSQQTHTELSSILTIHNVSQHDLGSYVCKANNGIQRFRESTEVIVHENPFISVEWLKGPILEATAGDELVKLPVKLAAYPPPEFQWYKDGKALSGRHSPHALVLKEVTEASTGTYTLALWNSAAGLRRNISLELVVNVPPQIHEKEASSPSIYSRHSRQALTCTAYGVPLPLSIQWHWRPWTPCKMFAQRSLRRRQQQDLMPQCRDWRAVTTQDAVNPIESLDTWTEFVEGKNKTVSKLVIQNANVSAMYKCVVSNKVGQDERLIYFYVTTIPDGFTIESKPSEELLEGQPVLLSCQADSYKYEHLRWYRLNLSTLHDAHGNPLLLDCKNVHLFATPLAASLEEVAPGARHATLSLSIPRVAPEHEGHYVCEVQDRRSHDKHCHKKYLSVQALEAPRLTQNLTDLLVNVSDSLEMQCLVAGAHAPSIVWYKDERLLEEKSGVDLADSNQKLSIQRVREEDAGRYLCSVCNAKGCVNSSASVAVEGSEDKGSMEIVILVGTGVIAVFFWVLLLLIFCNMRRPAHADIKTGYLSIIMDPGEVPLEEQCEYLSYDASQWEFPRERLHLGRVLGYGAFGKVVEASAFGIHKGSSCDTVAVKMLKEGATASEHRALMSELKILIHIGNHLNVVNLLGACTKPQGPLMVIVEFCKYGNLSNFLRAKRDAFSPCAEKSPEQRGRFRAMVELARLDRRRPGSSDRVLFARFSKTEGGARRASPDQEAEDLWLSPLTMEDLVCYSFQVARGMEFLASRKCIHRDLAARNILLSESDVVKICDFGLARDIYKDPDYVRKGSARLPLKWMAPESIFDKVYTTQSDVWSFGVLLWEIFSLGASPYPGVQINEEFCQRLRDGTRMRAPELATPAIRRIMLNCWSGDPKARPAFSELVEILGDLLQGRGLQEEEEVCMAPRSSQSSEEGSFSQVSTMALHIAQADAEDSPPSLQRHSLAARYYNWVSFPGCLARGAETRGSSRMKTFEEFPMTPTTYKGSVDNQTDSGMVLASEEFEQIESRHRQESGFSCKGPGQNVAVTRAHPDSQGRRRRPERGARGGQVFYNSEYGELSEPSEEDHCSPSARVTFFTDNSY
Method: as §1, §2

BTK(h) = target: T6, BTK(h) (Homo sapiens, UniProt Q06187); assay: Upstate KinaseProfiler enzyme assay, BTK; conditions: 500 nM compound; read-out: Percent inhibition at 500 nM BTK(h)
T6 construct: purchased Upstate Biotechnology (Dundee, UK), KinaseProfiler service
Method: as §1, §2

Compound | inhibition at 0.5 µM (Flt 1(h)) | inhibition at 0.5 µM (Bmx(h)) | inhibition at 0.5 µM (Blk(m)) | inhibition at 0.5 µM (KDR(h)) | inhibition at 0.5 µM (Flt 4(h)) | inhibition at 0.5 µM (BTK(h))
C=CC(=O)Nc1ccc(Sc2nc(Nc3ccc(N4CCOCC4)cc3)ncc2C)c(C)c1 [Compound 163, N-(3-methyl-4-(5-methyl-2-(4-morpholinophenylao)pyrimidin-4-ylthio)phenyl)acrylamide] | 83% | 85% | 95% | 97% | 99% | 
C=CC(=O)NCc1ccc(Sc2ccnc(Nc3ccc(N4CCOCC4)cc3)n2)cc1 [Compound 111, N-(4-(2-(4-morpholinophenylamino)pyrimidin-4-ylthio)benzyl)acrylamide] |  | 100% | 100% | 100% |  | 100%
C=CC(=O)Nc1ccc(Sc2nc(Nc3ccc(N4CCOCC4)c(OC)c3)ncc2C)cc1 [Compound 248, N-(4-(2-(3-methoxy-4-morpholinophenylao)-5-methylpyrimidin-4-ylthio)phenyl)acrylamide] | 95% | 91% | 92% | 95% | 100% | 80%
C=CC(=O)Nc1ccc(Sc2nc(Nc3ccc(N4CCC(CO)CC4)cc3)ncc2C)cc1 [Compound 286, N-(4-(2-(4-(4-(hydroxymethyl)piperidin-1-yl)phenylao)-5-methylpyrimidin-4-ylthio)phenyl)acrylamide] | 98% | 95% | 88% | 94% | 100% | 74%
O=C(/C=C/Cl)Nc1cccc(Sc2ccnc(Nc3ccc(N4CCOCC4)cc3)n2)c1 [Compound 340, (E)-3-chloro-N-(3-(2-(4-morpholinophenylao)pyrimidin-4-ylthio)phenyl)acrylamide] | 100% | 92% | 99% | 94% | 95% | 97%
C=CC(=O)Nc1ccc(Sc2ccnc(Nc3ccc(N4CCOCC4)cc3)n2)cc1OC [Compound 123, N-(2-methoxy-4-(2-(4-morpholinophenylao)pyrimidin-4-ylthio)phenyl)acrylamide] |  | 100% | 100% | 100% |  | 100%
C=CC(=O)Nc1ccc(Sc2nc(Nc3ccc(OC)c(OC)c3)ncc2C)cc1 [Compound 241, N-(4-(2-(3,4-dimethoxyphenylao)-5-methylpyrimidin-4-ylthio)phenyl)acrylamide] | 100% | 92% | 98% | 97% | 100% | 88%
CC#CC(=O)Nc1ccc(Sc2ccnc(Nc3cccc(N4CCOCC4)c3)n2)cc1 [Compound 233, N-(4-(2-(3-morpholinophenylao)pyrimidin-4-ylthio)phenyl)but-2-ynamide] | 99% | 89% | 85% | 98% | 99% | 
C=CC(=O)Nc1cccc(Nc2nccc(Sc3ccc(OC)cc3)n2)c1 [Compound 42, N-(3-(4-(4-methoxyphenylthio)pyrimidin-2-ylao)phenyl)acrylamide] |  | 100% | 59% | 100% |  | 100%
N#Cc1nnnn1Cc1ccc(Sc2ccnc(Nc3ccc(N4CCOCC4)cc3)n2)cc1 [Compound 155, 1-(4-(2-(4-morpholinophenylao)pyrimidin-4-ylthio)benzyl)-1H-tetrazole-5-carbonitrile] | 74% | 86% | 40% | 98% | 99% | 81%
C=CC(=O)N(C)c1ccc(Sc2nc(Nc3ccc(N4CCOCC4)cc3)ncc2C)cc1 [Compound 173, N-methyl-N-(4-(5-methyl-2-(4-morpholinophenylao)pyrimidin-4-ylthio)phenyl)acrylamide] | 95% | 94% | 93% | 96% | 98% | 93%
C=CC(=O)Nc1ccc(Sc2nc(Nc3cccc(OC)c3)ncc2C)cc1 [Compound 235, N-(4-(2-(3-methoxyphenylao)-5-methylpyrimidin-4-ylthio)phenyl)acrylamide] | 86% | 79% | 86% | 96% | 99% | 
C=CC(=O)NCc1cccc(Sc2ccnc(Nc3ccc(N4CCOCC4)cc3)n2)c1 [Compound 112, N-(3-(2-(4-morpholinophenylamino)pyrimidin-4-ylthio)benzyl)acrylamide] |  | 100% | 100% | 100% |  | 100%
C=CC(=O)Nc1ccc(Sc2ccnc(Nc3cccc(N4CCOCC4)c3)n2)cc1 [Compound 77, N-(4-(2-(3-morpholinophenylao)pyrimidin-4-ylthio)phenyl)acrylamide] |  | 100% | 100% | 100% |  | 100%
Cc1cc(N)ccc1Sc1nc(Nc2ccc(N3CCOCC3)cc2)ncc1C [Compound 162, 4-(4-ao-2-methylphenylthio)-5-methyl-N-(4-morpholinophenyl)pyrimidin-2-ae] | 82% | 55% | 50% | 95% | 98% | 
C=CC(=O)Nc1ccc(Sc2ccnc(Nc3ccc(N4CCN(C)CC4)cc3)n2)cc1 [Compound 238, N-(4-(2-(4-(4-methylpiperazin-1-yl)phenylao)pyrimidin-4-ylthio)phenyl)acrylamide] | 97% | 90% | 99% | 95% | 99% | 
C=CC(=O)Nc1cccc(Sc2ccnc(Nc3cccc(N4CCOCC4)c3)n2)c1 [Compound 110, N-(3-(2-(3-morpholinophenylao)pyrimidin-4-ylthio)phenyl)acrylamide] |  | 100% | 100% | 100% |  | 100%
Cc1cnc(Nc2ccc(N3CCOCC3)cc2)nc1Sc1c(C)cc(N)cc1C [Compound 165, 4-(4-ao-2,6-dimethylphenylthio)-5-methyl-N-(4-morpholinophenyl)pyrimidin-2-ae] | 43% | 40% | 0% | 86% | 99% | 
C=CC(=O)Nc1ccc(Sc2ccnc(Nc3ccc(N4CCOCC4)cc3)n2)cc1 [Compound 25, N-(4-(2-(4-morpholinophenylamino)pyrimidin-4-ylthio)phenyl)acrylamide] |  | 97% | 71% |  |  | 83%
N#Cc1ncn(Cc2ccc(Sc3ccnc(Nc4ccc(N5CCOCC5)cc4)n3)cc2)c1C#N [Compound 201, 1-(4-(2-(4-morpholinophenylao)pyrimidin-4-ylthio)benzyl)-1H-imidazole-4,5-dicarbonitrile] |  | 100% | 100% | 100% |  | 100%
C=CC(=O)Nc1ccc(Sc2nc(Nc3cccc(N4CCOCC4)c3)ncc2C)cc1 [Compound 237, N-(4-(5-methyl-2-(3-morpholinophenylao)pyrimidin-4-ylthio)phenyl)acrylamide] | 98% | 92% | 96% | 97% | 99% | 
C=CC(=O)Nc1cccc(Sc2ccnc(Nc3ccc(N4CCOCC4)cc3)n2)c1 [Compound 23, N-(3-(2-(4-morpholinophenylamino)pyrimidin-4-ylthio)phenyl)acrylamide] |  | 100% | 97% |  |  | 84%
